Like-named read-outs stand apart in the source and are kept apart here.
Legend:
Mouse in vivo PK study [1] = conditions: mouse, plasma, male CD1 mice, 10 mg/kg PO
INSR = target: T1, INSR (Homo sapiens, UniProt P06213); assay: INSR inhibition assay (Caliper mobility shift); format: biochemical; conditions: enzyme assay
T1 construct: purchased CARNA BIOSCIENCE 08-142

Mouse in vivo PK study [2] = conditions: male CD1 mice, 1 mg/kg IV
Procedure: To determine the drug concentration in plasma of the compounds of the present disclosure following intravenous and oral administration in male CD 1 Mice, pharmacokinetic profile and PK parameters were obtained.
Test animals: healthy male CD1 mice (body weight 20-30 g, 18 mice, free access to food and water), provided by Sibeifu laboratory. […]
Samples collection: the healthy animals were used, weighed the bodyweight and marked at tail and cage card prior to dosing. Blood samples (0.03 mL per time point) were collected from dorsal metatarsal vein at 0.083, 0.25, 0.5, 1, 2, 4, 8, 24 h post dose for IV group and at 0.25, 0.5, 1, 2, 4, 8, 24 h post dose for PO group, the terminal time point was collected from heart (˜0.3 mL). The blood samples were put into the tube with heparin-Na coated and then put on the cold box, centrifuged at 4° C. 4000 g, 5 minutes immediately after collecting all samples per time point to get plasma. The plasma samples were stored in a freezer at −75±15° C. prior to analysis.
The drug concentration was determined by LC/MS/MS method, and the PK parameters were observed as follows.

[3] = target: T2, Exon 19 deletion EGFR (activating single mutant) in PC-9 cells (Homo sapiens, UniProt P00533, DEL746-750); assay: Exon 19 deletion EGFR PC-9 cellular autophosphorylation assay (p-EGFR ELISA); format: cell-based; conditions: PC9, 2 h treatment, read-out: SM (PC9) IC50
T2 construct: cellular phosphorylation of endogenous p-EGFR; host or cells: PC9 (PC-9) human lung cell line
T2 sequence (P00533 with tags, fused parts or gaps DEL746-750): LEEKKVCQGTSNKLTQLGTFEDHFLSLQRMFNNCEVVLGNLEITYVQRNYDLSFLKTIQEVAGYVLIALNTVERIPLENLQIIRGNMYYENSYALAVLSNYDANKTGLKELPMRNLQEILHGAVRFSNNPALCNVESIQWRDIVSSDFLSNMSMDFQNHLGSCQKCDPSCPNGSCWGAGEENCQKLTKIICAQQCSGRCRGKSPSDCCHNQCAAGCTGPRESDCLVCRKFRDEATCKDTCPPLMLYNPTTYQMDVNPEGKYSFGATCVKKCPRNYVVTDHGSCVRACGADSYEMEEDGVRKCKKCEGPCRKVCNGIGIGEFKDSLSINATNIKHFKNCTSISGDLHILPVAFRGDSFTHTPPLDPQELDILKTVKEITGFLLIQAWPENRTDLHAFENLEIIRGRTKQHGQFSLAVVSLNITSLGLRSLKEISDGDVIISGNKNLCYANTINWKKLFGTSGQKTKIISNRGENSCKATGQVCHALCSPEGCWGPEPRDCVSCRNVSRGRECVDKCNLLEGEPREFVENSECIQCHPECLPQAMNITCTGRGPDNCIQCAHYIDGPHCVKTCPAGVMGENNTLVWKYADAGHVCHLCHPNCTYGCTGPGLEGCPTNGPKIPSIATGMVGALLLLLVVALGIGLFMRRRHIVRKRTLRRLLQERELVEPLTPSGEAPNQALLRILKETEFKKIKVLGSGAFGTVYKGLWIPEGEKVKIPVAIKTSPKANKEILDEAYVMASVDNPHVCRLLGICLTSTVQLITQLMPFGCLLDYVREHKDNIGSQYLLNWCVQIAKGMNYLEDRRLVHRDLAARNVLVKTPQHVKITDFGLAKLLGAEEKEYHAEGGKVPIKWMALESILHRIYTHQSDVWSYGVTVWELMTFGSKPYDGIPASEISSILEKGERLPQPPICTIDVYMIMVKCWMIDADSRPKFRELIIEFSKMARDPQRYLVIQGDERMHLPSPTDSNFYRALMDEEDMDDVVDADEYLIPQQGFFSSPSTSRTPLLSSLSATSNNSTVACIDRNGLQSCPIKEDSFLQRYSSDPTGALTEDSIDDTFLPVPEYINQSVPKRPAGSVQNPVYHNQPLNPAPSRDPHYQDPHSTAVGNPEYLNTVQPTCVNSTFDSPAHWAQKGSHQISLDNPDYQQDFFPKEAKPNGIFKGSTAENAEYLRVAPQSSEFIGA

H1975 cells = assay: H1975 inhibition assay (cell proliferation, CellTiter-Glo, 72 h); format: cell-based, human; conditions: Homo sapiens, NCI-H1975, 72 h, cellular proliferation, double mutant EGFR, read-out: NCI-H1975 IC50 (nM) DM
[4] = target: Wild type EGFR in A431 cells (Homo sapiens, UniProt P00533); conditions: WT (A431) IC50 nM, cellular EGFR autophosphorylation, A431, 2 h treatment then EGF stimulation 10 min
Sequence of Wild type EGFR in A431 cells (P00533 25-1210): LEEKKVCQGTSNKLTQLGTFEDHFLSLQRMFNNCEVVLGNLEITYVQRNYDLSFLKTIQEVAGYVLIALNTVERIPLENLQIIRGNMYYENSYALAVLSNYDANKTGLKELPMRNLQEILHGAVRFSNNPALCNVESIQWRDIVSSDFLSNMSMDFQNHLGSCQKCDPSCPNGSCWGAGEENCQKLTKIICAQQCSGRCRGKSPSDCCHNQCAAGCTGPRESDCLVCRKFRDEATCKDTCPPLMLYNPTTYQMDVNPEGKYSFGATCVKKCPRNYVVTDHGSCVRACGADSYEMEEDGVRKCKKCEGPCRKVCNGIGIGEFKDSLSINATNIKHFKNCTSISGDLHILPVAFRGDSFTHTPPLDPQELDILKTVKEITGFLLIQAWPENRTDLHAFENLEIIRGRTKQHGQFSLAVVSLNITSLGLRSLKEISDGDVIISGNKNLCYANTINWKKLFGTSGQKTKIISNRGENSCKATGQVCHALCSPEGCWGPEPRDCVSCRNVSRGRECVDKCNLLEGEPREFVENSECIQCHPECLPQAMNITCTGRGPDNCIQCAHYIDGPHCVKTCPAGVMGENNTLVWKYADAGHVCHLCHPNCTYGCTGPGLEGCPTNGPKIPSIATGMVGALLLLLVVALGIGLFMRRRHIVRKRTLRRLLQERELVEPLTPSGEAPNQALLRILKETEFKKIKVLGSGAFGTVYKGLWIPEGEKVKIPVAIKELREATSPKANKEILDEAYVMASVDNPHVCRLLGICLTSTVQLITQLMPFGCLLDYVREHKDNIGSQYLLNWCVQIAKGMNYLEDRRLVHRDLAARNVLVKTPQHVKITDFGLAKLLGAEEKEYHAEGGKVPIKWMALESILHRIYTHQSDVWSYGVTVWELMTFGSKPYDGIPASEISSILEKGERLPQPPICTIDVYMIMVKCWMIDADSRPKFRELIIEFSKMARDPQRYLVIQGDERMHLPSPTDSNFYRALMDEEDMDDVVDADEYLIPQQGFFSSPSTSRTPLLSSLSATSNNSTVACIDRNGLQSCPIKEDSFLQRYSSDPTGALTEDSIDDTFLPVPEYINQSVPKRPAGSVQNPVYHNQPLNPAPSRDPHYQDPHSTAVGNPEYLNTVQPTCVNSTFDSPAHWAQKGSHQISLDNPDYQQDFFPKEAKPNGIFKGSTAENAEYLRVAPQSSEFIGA

IGF-1R = target: T3, IGF-1R (Homo sapiens, UniProt P08069); assay: IGF-1R inhibition assay (Caliper mobility shift); format: biochemical; conditions: enzyme assay
T3 construct: purchased CARNA BIOSCIENCE 08-141
T3 sequence (P08069 959-1367 limits assumed): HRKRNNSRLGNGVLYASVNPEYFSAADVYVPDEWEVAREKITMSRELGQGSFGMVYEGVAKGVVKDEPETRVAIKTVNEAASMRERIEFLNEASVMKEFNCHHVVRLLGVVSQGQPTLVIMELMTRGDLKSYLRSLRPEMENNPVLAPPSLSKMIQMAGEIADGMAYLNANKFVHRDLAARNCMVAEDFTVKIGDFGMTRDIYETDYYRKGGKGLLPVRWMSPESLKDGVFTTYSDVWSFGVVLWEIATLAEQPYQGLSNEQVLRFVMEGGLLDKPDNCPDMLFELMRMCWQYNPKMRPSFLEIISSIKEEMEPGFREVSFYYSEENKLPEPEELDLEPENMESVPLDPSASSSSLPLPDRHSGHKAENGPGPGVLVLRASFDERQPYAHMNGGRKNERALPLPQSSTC

PC-9 cells = assay: PC-9 growth inhibition assay (cell proliferation, CellTiter-Glo, 72 h); format: cell-based, human; conditions: Homo sapiens, PC-9, 72 h, cellular proliferation, PC9 cells, single mutant EGFR, read-out: PC9 IC50 (nM) SM
[5] = system: H1975 NSCLC cells xenograft (EGFR L858R/T790M double mutant); assay: EGFR L858R/T790M double-mutant H1975 xenograft model; format: in vivo, nu/nu mice; conditions: day 10 after dosing; for Tumor Size: average ± SEM, n = 9
A431 cells = assay: A431 inhibition assay (cell proliferation, CellTiter-Glo, 72 h); format: cell-based, human; conditions: Homo sapiens, A-431, 72 h, cellular proliferation, wild type EGFR, read-out: A431 IC50 (nM) WT
[6] = target: hERG channel (HEK 293 cell line stably expressing hERG channel) (Homo sapiens, UniProt Q12809); assay: cell-based
Sequence of hERG channel (HEK 293 cell line stably expressing hERG channel) (Q12809 whole entry): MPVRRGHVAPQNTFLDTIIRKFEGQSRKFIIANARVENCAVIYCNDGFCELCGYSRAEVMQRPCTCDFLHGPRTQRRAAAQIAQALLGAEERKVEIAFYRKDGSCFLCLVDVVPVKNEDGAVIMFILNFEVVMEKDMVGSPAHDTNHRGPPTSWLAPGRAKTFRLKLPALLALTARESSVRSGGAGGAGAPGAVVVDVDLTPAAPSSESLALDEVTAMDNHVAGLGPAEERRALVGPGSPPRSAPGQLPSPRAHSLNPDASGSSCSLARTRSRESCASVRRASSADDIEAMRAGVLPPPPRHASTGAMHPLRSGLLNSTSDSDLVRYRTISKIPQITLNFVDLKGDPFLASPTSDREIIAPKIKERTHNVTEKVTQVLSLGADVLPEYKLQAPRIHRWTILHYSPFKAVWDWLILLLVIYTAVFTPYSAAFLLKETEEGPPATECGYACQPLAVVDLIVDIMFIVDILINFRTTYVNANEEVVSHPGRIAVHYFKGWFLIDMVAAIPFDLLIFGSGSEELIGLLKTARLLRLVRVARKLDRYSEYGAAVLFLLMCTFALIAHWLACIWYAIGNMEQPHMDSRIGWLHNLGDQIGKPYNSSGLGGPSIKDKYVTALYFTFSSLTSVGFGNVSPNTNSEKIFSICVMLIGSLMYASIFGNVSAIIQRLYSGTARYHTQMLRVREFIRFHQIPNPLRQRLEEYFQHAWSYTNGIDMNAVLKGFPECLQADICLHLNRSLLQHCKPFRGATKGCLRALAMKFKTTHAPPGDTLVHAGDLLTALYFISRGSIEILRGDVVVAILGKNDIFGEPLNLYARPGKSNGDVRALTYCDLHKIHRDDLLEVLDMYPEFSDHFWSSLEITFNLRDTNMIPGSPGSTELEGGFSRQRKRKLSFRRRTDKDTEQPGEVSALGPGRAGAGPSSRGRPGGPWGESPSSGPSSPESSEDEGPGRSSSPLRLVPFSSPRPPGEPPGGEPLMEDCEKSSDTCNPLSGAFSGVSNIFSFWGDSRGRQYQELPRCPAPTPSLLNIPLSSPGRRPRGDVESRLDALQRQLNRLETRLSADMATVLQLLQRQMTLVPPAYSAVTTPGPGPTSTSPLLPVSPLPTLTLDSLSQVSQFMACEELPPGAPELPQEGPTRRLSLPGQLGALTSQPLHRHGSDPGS

[7] = target: T4, L858R/T790M double mutant EGFR in H1975 cells (Homo sapiens, UniProt P00533, L858R/T790M); assay: L858R/T790M double mutant H1975 autophosphorylation inhibition assay (ELISA); format: cell-based; conditions: cellular EGFR autophosphorylation, H1975, 2 h treatment; read-out: DM (H1975) IC50
T4 construct: endogenous in cells; host or cells: H1975 cells
T4 sequence (P00533 25-1210 T790M/L858R): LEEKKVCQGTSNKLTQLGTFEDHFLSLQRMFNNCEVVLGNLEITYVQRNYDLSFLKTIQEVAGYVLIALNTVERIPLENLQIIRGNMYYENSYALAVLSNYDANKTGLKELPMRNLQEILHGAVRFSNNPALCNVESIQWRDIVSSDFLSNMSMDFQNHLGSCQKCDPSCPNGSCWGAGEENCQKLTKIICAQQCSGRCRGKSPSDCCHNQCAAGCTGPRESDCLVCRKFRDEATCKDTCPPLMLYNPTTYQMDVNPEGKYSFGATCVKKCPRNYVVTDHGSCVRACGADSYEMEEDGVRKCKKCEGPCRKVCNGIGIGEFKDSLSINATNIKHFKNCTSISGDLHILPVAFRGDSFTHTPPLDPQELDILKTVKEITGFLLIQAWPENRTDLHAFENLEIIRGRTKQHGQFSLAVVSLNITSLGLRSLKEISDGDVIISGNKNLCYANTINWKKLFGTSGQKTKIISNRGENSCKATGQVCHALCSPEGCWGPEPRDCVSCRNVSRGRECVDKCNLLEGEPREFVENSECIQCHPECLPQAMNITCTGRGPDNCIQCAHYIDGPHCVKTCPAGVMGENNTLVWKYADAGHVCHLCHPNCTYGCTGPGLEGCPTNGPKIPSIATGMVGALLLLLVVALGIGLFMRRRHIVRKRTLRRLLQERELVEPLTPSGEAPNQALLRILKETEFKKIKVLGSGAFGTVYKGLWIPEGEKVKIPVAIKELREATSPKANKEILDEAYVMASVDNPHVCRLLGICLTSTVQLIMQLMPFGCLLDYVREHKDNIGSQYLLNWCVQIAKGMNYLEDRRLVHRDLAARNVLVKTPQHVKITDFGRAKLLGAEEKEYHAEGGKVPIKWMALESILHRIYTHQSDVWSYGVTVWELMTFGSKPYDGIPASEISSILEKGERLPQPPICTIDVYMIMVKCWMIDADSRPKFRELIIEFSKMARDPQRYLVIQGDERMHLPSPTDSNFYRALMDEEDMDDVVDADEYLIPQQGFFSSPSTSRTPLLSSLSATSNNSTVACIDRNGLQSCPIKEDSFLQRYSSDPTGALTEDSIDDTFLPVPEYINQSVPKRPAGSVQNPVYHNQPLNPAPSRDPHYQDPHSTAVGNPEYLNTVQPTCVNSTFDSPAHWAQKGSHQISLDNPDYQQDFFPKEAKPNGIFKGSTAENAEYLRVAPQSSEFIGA

AUC (Mouse in vivo PK study [1]): 784 ng·h/mL
Cmax (Mouse in vivo PK study [1]): 117 ng/mL
half-life (Mouse in vivo PK study [1]; read-out: T1/2 (PO) (converted)): 2.67 h
IC50 (INSR): 2310 nM
F (Mouse in vivo PK study [2]; 10 mg/kg PO): 46.7%
AUC (Mouse in vivo PK study [2]; mouse, plasma): 168 ng·h/mL
clearance (Mouse in vivo PK study [2]; mouse, plasma): 100 mL/min/kg
half-life (Mouse in vivo PK study [2]; mouse, plasma, read-out: T1/2 (IV) (converted)): 0.92 h
IC50 [3]: 8.35 nM
IC50 (H1975 cells): 2.6 nM
IC50 [4]: 72.5 nM
IC50 (IGF-1R): 2090 nM
IC50 (PC-9 cells): 1.82 nM
IC50 (A431 cells): 1090 nM
IC50 [7]: 7.52 nM
SMILES: C=CC(=O)Nc1cc(Nc2nccc(-n3nc(N(C)C)c4cc(Cl)sc43)n2)c(OC)cc1N(C)CCN(C)C [Example 6, N-(5-((4-(5-Chloro-3-(dimethylamino)-1H-thieno[2,3-c]pyrazol-1-yl)pyrimidin-2-yl)amino)-2-((2-(dimethylamino)ethyl)(methyl)amino)-4-methoxyphenyl)acrylamide]
TGI (tumor growth inhibition) ([5]; 5 mg/kg): 99.56%
TRTV/CRTV (relative tumor volume) ([5]; 5 mg/kg): 17.49%
Tumor Size ([5]; 5 mg/kg): 203 ± 24 mm^3
TGI (tumor growth inhibition) ([5]; 15 mg/kg): 114.04%
TRTV/CRTV (relative tumor volume) ([5]; 15 mg/kg): 5.34%
Tumor Size ([5]; 15 mg/kg): 63 ± 30 mm^3
TGI (tumor growth inhibition) ([5]; 30 mg/kg): 117.41%
TRTV/CRTV (relative tumor volume) ([5]; 30 mg/kg): 2.42%
Tumor Size ([5]; 30 mg/kg): 28 ± 9 mm^3
IC50 [6]: 2550 nM
